Values quoted from earlier work, collected in patent US9597306B1, “Fumarate compounds, pharmaceutical compositions thereof, and methods of use” (priority 2015, dated 2017).

COC(=O)/C=C/C(=O)OC [DMF, dimethylfumarate]
aqueous solubility: poor
